Experimental findings from paper PMC10850501 (Nature Communications, 2024) are described below.

Data set [1] relates to SARS-CoV-2 live virus (B.1 lineage), Vero E6 cells. The class given is cell-based.
For data set [2], the system named is SARS-CoV-2 Spike pseudotyped viruses, HEK-293T-ACE2 cells. The format is cell-based, SARS-CoV-2 (Wuhan-Hu-1 Spike). The following applies: for inhibition of pseudovirus, in words: 10 µM.
A short description of another data set: Cytocompatibility (CCK8). The format is cell-based, human. The following applies: human, A549 cells, read-out: cytocompatibility, normalized to serum free media; for viability at 6 h, 10 µM: 0.01 mM peptide; for viability at 6 h, 100 µM: 0.1 mM peptide; for viability at 6 h, 1000 µM: 1 mM peptide. The procedure: (§1) Cytocompatibility of the peptides was evaluated at 1, 0.1, and 0.01 mM with A549 cells (ATCC CCL-185) cultured in complete media consisting of 90% F-12K and 10% FBS. The A549 cells were utilized after their first passage and seeded at 10,000 cells/well in a 96-well plate for 24 hours. The conditions were prepared in serum-free A549 media and introduced into the wells for 6 hours, after which the condition media were aspirated, the wells were washed once with PBS, and 10 µL of CCK8 was added to 100 µL of PBS[32]. The plate was incubated for 1 hour and read on a Tecan M200 Infinite plate reader at an absorbance of 450 nm with a reference wavelength of 650 nm. The results were analyzed and normalized to the serum-free media control[28],[32],[76].

The next data set has as its system A549 cells. The data set is described as follows: Cytocompatibility (CCK8). The format is cell-based, human. The following applies: human alveolar epithelial A549 cells; 0.01-1 mM. The procedure: as §1
Data set [3] in a line: Daily repeat IV dosing, 10 days (chronic PK/safety). The class given is in vivo, rat (female Wistar). As for the experimental part:
(§2) Female Wistar rats (225–250 g, 8–12 weeks old) were observed and acclimatized for 2 weeks prior to running the studies. They were housed in a controlled environment with temperature at […] and 40–70% humidity. They were kept in an alternating 12-hour light/dark cycle, and food, and water was provided as pellets ad libitum. Female Wistar Rats were used for the pharmacokinetics and the drug clearance analysis from the blood. The two hydrogels (ESBP2 and ESBP3) at 10 mg/ml concentration were injected into the rats via the lateral tail vein. For subcutaneous implants, the substance was injected between the shoulder blades and above the lumbar vertebrae, 200 μL each, using a 25-gauge needle. The hydrogel bolus was prepared with 0.9% saline and was injected within 1–2 minutes. The volume injected was approximately 1% of the total body weight of the rat, which was calculated prior to the dosing. The initial blood draw was performed for baseline, and the subsequent blood collection was performed from the lateral vein using 25 g butterfly needles.
Female Wistar rats (225–250 g, 8–12 weeks old) were weighed and repeatedly dosed (1% by weight) IV with ESBP2 or ESBP3 daily at 10 mg/mL (~3 mM). Rat blood samples were collected daily prior to injection via tail vein. Post 10 days of treatment, animals were allowed to recover for 10 days and then sacrificed. Plasma was stored and analyzed as above. The body weight was recorded every day prior to the blood collection.

The nature of data set [4]: Acute IV pharmacokinetics. The class given is in vivo, rat (female Wistar). The procedure:
as §2
Rat blood samples were collected at 0, 5, 15, 30 minutes, and 1, 2, 4, 8, and 24 hours post-injection timepoints for Acute PK and were aliquoted out into heparinized tubes to prevent coagulation and stored on top of ice packs. Blood collected in K2EDTA anticoagulant tubes was processed to plasma frozen via centrifugation at 13000 RCF for 10 minutes at 4 °C and stored at −80 °C till analysis using HPLC. The body weight was recorded every day prior to the blood collection.

Where [5] appears, read: replicate 1, CCK8, 6 h exposure, absorbance 450 nm.

Values joined by “and” are separate entries in the source; they are usually repeats but may differ in a detail not shown here. Identical values can stand only once. “Also recorded” adds a separate entry of the source. Like-named read-outs stand apart in the source and are kept apart here. Peptide text beside a SMILES is read from it.

Consider `CC[C@H](C)[C@H](NC(=O)CNC(=O)[C@H](CCC(=O)O)NC(=O)[C@H](CC(C)C)NC(=O)[C@H](CO)NC(=O)[C@H](CC(C)C)NC(=O)[C@H](CO)NC(=O)[C@H](CC(C)C)NC(=O)[C@H](CO)NC(=O)[C@H](CC(C)C)NC(=O)[C@H](CO)NC(=O)[C@H](CC(C)C)NC(=O)[C@H](CO)NC(=O)[C@H](CC(C)C)NC(=O)[C@H](CO)NC(=O)[C@H](CCC(=O)O)NC(C)=O)C(=O)N[C@@H](CCC(=O)O)C(=O)N[C@@H](CCC(=O)O)C(=O)N[C@@H](CCC(N)=O)C(=O)N[C@@H](C)C(=O)N[C@@H](CCCCN)C(=O)N[C@H](C(=O)N[C@@H](Cc1ccccc1)C(=O)N[C@@H](CC(C)C)C(=O)N[C@@H](CC(=O)O)C(=O)N[C@@H](CCCCN)C(=O)N[C@@H](Cc1ccccc1)C(=O)N[C@@H](CC(N)=O)C(=O)N[C@@H](Cc1c[nH]cn1)C(=O)N[C@@H](CCC(=O)O)C(=O)N[C@@H](C)C(=O)N[C@@H](CCC(=O)O)C(=O)N[C@@H](CC(=O)O)C(=O)N[C@@H](CC(C)C)C(=O)N[C@@H](Cc1ccccc1)C(=O)N[C@@H](Cc1ccc(O)cc1)C(=O)N[C@@H](CCC(N)=O)C(=O)N[C@@H](CO)C(N)=O)[C@@H](C)O` [ESBP1], for which, in data set [1], the “live virus inhibition, in words” value is reported as “significant improvement in viral inhibition”. For the same molecule, the “Relative PFU” value in data set [1] (10 µM) is 51.2258 and 58.5437 and 80.4976. Further, in data set [2], the “Normalized, Average” value worked out at 0.2588 and the “inhibition of pseudovirus, in words” value is recorded as “inhibited pseudovirus to a similar degree”.
On to `CC[C@H](C)[C@H](NC(=O)CNC(=O)[C@H](CCCCN)NC(=O)[C@H](CC(C)C)NC(=O)[C@H](CO)NC(=O)[C@H](CC(C)C)NC(=O)[C@H](CO)NC(=O)[C@H](CC(C)C)NC(=O)[C@H](CO)NC(=O)[C@H](CC(C)C)NC(=O)[C@H](CO)NC(=O)[C@H](CC(C)C)NC(=O)[C@H](CO)NC(=O)[C@H](CC(C)C)NC(=O)[C@H](CO)NC(=O)[C@H](CCCCN)NC(C)=O)C(=O)N[C@@H](CCC(=O)O)C(=O)N[C@@H](CCC(=O)O)C(=O)N[C@@H](CCC(N)=O)C(=O)N[C@@H](C)C(=O)N[C@@H](CCCCN)C(=O)N[C@H](C(=O)N[C@@H](Cc1ccccc1)C(=O)N[C@@H](CC(C)C)C(=O)N[C@@H](CC(=O)O)C(=O)N[C@@H](CCCCN)C(=O)N[C@@H](Cc1ccccc1)C(=O)N[C@@H](CC(N)=O)C(=O)N[C@@H](Cc1c[nH]cn1)C(=O)N[C@@H](CCC(=O)O)C(=O)N[C@@H](C)C(=O)N[C@@H](CCC(=O)O)C(=O)N[C@@H](CC(=O)O)C(=O)N[C@@H](CC(C)C)C(=O)N[C@@H](Cc1ccccc1)C(=O)N[C@@H](Cc1ccc(O)cc1)C(=O)N[C@@H](CCC(N)=O)C(=O)N[C@@H](CO)C(N)=O)[C@@H](C)O` [KSBP1], for which, in data set [2], the “Normalized, Average” value is 0.8193 and the “inhibition of pseudovirus, in words” value is recorded as “significant decrease in inhibitory effect”.
For `CSCC[C@H](NC(=O)[C@H](Cc1ccccc1)NC(=O)[C@H](CCCCN)NC(=O)[C@H](CC(=O)O)NC(=O)[C@H](CC(C)C)NC(=O)[C@H](Cc1ccccc1)NC(=O)[C@@H](NC(=O)[C@H](CCCCN)NC(=O)[C@H](CC(C)C)NC(=O)[C@H](CCC(N)=O)NC(=O)[C@H](CCC(=O)O)NC(=O)[C@H](CCC(=O)O)NC(=O)[C@H](CC(C)C)NC(=O)[C@H](C)NC(=O)[C@H](CO)NC(C)=O)[C@@H](C)O)C(=O)N[C@@H](Cc1c[nH]cn1)C(=O)N[C@@H](CCC(=O)O)C(=O)N[C@@H](CC(C)C)C(=O)N[C@@H](CCC(=O)O)C(=O)N[C@@H](CC(=O)O)C(=O)N[C@@H](CC(C)C)C(=O)N[C@@H](CC(C)C)C(=O)N[C@@H](Cc1ccc(O)cc1)C(=O)N[C@@H](CCC(N)=O)C(=O)N[C@@H](CC(C)C)C(=O)N[C@@H](C)C(=O)N[C@@H](CC(C)C)C(N)=O` [SBP2, reference compound] (Ac-SALEEQLKTFLDKFMHELEDLLYQLAL-NH2), the “in vitro live virus inhibition, in words” value in data set [1] was “inhibition of live virus”. Further, the viability at 6 h, 10 µM in “Cytocompatibility (CCK8)” (replicate 1, CCK8, 6 h) is 105%; in the data set “Cytocompatibility (CCK8)” (replicate 2, CCK8, 6 h), 92.2%. The viability at 6 h, 100 µM turned out to be 107% in “Cytocompatibility (CCK8)” (replicate 1, CCK8, 6 h); 104% in the data set “Cytocompatibility (CCK8)” (replicate 2, CCK8, 6 h); 91.4% in the data set “Cytocompatibility (CCK8)” (replicate 3, CCK8, 6 h). The viability at 6 h, 1000 µM in “Cytocompatibility (CCK8)” (setting [5]) stood at 85.7%; in the data set “Cytocompatibility (CCK8)” (replicate 2, CCK8, 6 h), 122%; in the data set “Cytocompatibility (CCK8)” (replicate 3, CCK8, 6 h) it was 150%. Moreover, the “cytocompatibility, in words” value in the data set with A549 cells is on record as “excellent cytocompatibility”.
With `CC[C@H](C)[C@H](NC(=O)[C@H](Cc1ccc(O)cc1)NC(=O)[C@@H](NC(=O)[C@H](CCCCN)NC(=O)[C@H](Cc1ccc(O)cc1)NC(=O)[C@H](CCC(N)=O)NC(C)=O)[C@@H](C)O)C(=O)N[C@@H](CC(=O)O)C(=O)N[C@@H](CCCCN)C(=O)N[C@@H](CC(N)=O)C(=O)N[C@@H](CC(N)=O)C(=O)N[C@@H](Cc1c[nH]cn1)C(=O)N[C@@H](Cc1ccc(O)cc1)C(=O)N[C@@H](C)C(=O)N[C@@H](CCC(=O)O)C(=O)N[C@@H](CC(=O)O)C(=O)N[C@@H](CCC(=O)O)C(=O)N[C@@H](CCCNC(=N)N)C(=O)N[C@@H](Cc1ccc(O)cc1)C(=O)N[C@@H](CCCCN)C(N)=O` [SBP3] (Ac-QYKTYIDKNNHYAEDERYK-NH2), in data set [1], the “Comparative, Average” value was 72.3704 and the “live virus plaque inhibition, in words” value is “no major differences”. Further, in the data set “Cytocompatibility (CCK8)” (replicate 1, CCK8, 6 h), the viability at 6 h, 10 µM was found to be 104% and the viability at 6 h, 100 µM turned out to be 77.8%. In addition, in the data set “Cytocompatibility (CCK8)” (replicate 2, CCK8, 6 h), the viability at 6 h, 10 µM was 96.9%; the viability at 6 h, 100 µM was 94.4%; the viability at 6 h, 1000 µM worked out at 139%. Moreover, the viability at 6 h, 100 µM in the data set “Cytocompatibility (CCK8)” (replicate 3, CCK8, 6 h) worked out at 95.5%. The viability at 6 h, 1000 µM in the data set “Cytocompatibility (CCK8)” (setting [5]) is 144%.
Regarding “Ac-ESLSLSLSLSLSLEGSALEEQLKTFLDKFMHELEDLLYQLAL-NH2 [ESBP2]”, the “in vitro live virus inhibition, in words” value in data set [1] is “inhibition of live virus; also recorded: significantly improved in vitro live virus inhibition”. Also, the viability at 6 h, 10 µM is 94.5% in the data set “Cytocompatibility (CCK8)” (replicate 1, CCK8, 6 h) and 98.3% in “Cytocompatibility (CCK8)” (replicate 2, CCK8, 6 h). Also, the viability at 6 h, 100 µM in the data set “Cytocompatibility (CCK8)” (replicate 1, CCK8, 6 h) amounted to 129%; in the data set “Cytocompatibility (CCK8)” (replicate 2, CCK8, 6 h) it was 132%; in the data set “Cytocompatibility (CCK8)” (replicate 3, CCK8, 6 h), 196%. In addition, the viability at 6 h, 1000 µM in “Cytocompatibility (CCK8)” (setting [5]) was found to be 117%; in the data set “Cytocompatibility (CCK8)” (replicate 2, CCK8, 6 h), 104%; in “Cytocompatibility (CCK8)” (replicate 3, CCK8, 6 h), 94.1%. Also, in the data set with A549 cells, the “cytocompatibility, in words” value was “excellent cytocompatibility”. Besides, the “repeat IV dosing safety, in words” value in data set [3] (daily IV for 10 days, ~1 w% (10 mg/mL), 225-250 g adult rats) is “no adverse effect”. The “significant changes in body weight (ESBP3 also animal behavior, adverse events, gross organ morphology) compared to carrier” value in data set [3] (daily repeated IV dosing for 10 days, rats) was “no”. The “eliminated by” value in data set [4] (ESBP2 IV bolus through the tail vein, Wistar rats (n=8)) was not above 8 h. In data set [4] (acute 24-hour single-dose IV bolus PK, rats), the “clearance from the circulation (time)” value was in the range of 4 to 8 h. For the same molecule, in data set [4] (female, rat, 10 mg/mL, ESBP2 IV bolus through the tail vein, Wistar rats (n=8), plasma, HPLC, read-out: time of concentration peak (converted)), the Tmax is 30 min. Moreover, the Cmax in data set [4] (female, rat, plasma, 10 mg/mL, ESBP2 IV bolus, Wistar rats (n=8), at 30 minutes following injection, read-out: observed maximum concentration) was determined as 36000 ng/mL. Further, in data set [4] (female, rat, plasma, 10 mg/mL, ESBP2 IV bolus, Wistar rats (n=8), read-out: area under the curve), the AUC worked out at 47000 ng·h/mL.
